Test system: Staphylococcus aureus
Experiment: Zone of inhibition assay
Format: cell-based
Details: 37° C. for 72 hours
Experimental: Zone-of-inhibition and Drug Delivery Assay—Antimicrobial activity of ciprofloxacin- and tetracycline-loaded polyHIPEs was assessed through a zone of inhibition assay. […] The polyHIPE discs were incubated in the drug solutions at room temperature overnight. Prior to being frozen and lyophilized, the discs were briefly rinsed with methanol. A plate of Staphylococcus aureus was streaked using cells from frozen stocks; single colonies, selected from the plate, were then used to inoculate 10 mL of liquid LB media, which were cultured overnight at 37° C. The starter cultures were diluted with fresh LB to an OD600 of approximately 1.1 before being further diluted in 1:5 ratio of culture to fresh, liquid LB media. To inoculate LB agar plates, 250 μL of the diluted culture was spread evenly across the surface of the plates, which were then incubated for 30 minutes at 37° C. The LB plates were then removed from the incubator and divided into 4 quadrants with the drug-loaded or control polyHIPE discs placed in the center of each quadrant. The plates were then returned to the incubator and cultured for approximately 24 hours. Following the 24-hour period of incubation, the plates were removed, photographed next to a standard ruler and the polyHIPEs transferred to a freshly inoculated plate which was incubated for another 24 hours. […]

## O=C(O)c1cn(C2CC2)c2cc(N3CCNCC3)c(F)cc2c1=O [ciprofloxacin]
  antibiotic activity within polyHIPEs after incubation: not diminished

— patent US11639412B2, “Acute care cover for severe injuries” (priority 2016, dated 2023)
